Results on one molecule are retold here after ChEMBL document CHEMBL1255248, “Fitness of Streptococcus pneumoniae fluoroquinolone-resistant strains with topoisomerase IV recombinant genes” (2008).

The structures appear in SMILES notation. Converted amounts (≈) assume the structure as drawn.

For test [1], the system named is Streptococcus pneumoniae. Kind of test: Antimicrobial activity against ciprofloxacin-resistant Streptococcus pneumoniae T30 harboring gyrA mutant gene by agar dilution method.
The subject of test [2] is Streptococcus pneumoniae. Nature of the test: Antimicrobial activity against ciprofloxacin-resistant Streptococcus pneumoniae T4 harboring gyrA mutant gene by agar dilution method.
The test system of test [3] is Streptococcus pneumoniae. Kind of test: Antimicrobial activity against ciprofloxacin-resistant Streptococcus pneumoniae T11 harboring parE-ant-parC mutant gene by agar dilution method.
Test [4] has as its system Streptococcus pneumoniae. Kind of test: Antimicrobial activity against ciprofloxacin-resistant Streptococcus pneumoniae T7 harboring gyrA mutant gene by agar dilution method.
In test [5] the test system is Streptococcus pneumoniae. Kind of test: Antimicrobial activity against ciprofloxacin-resistant Streptococcus pneumoniae T2 harboring gyrA mutant gene by agar dilution method.
The test system of test [6] is Streptococcus pneumoniae. Kind of test: Antimicrobial activity against ciprofloxacin-resistant Streptococcus pneumoniae T3 harboring gyrA mutant gene by agar dilution method.
Test [7] concerns Streptococcus pneumoniae. Nature of the test: Antimicrobial activity against ciprofloxacin-resistant Streptococcus pneumoniae T6 harboring parC mutant gene by agar dilution method.
The subject of test [8] is Streptococcus pneumoniae. Nature of the test: Antimicrobial activity against ciprofloxacin-resistant Streptococcus pneumoniae T1 harboring parC mutant gene by agar dilution method.
In test [9] the test system is Streptococcus pneumoniae. Nature of the test: Antimicrobial activity against ciprofloxacin-resistant Streptococcus pneumoniae T9 harboring gyrA mutant gene by agar dilution method.
Test [10] concerns Streptococcus pneumoniae. Kind of test: Antimicrobial activity against ciprofloxacin-resistant Streptococcus pneumoniae T24 harboring gyrA mutant gene by agar dilution method.
For test [11], the system named is Streptococcus pneumoniae. Kind of test: Antimicrobial activity against ciprofloxacin-resistant Streptococcus pneumoniae T13 harboring gyrA mutant gene by agar dilution method.
For test [12], the system named is Streptococcus pneumoniae. Kind of test: Antimicrobial activity against ciprofloxacin-resistant Streptococcus pneumoniae T18 harboring gyrA mutant gene by agar dilution method.
In test [13] the test system is Streptococcus pneumoniae. Kind of test: Antimicrobial activity against ciprofloxacin-resistant Streptococcus pneumoniae T23 harboring gyrA mutant gene by agar dilution method.
Test [14] relates to Streptococcus pneumoniae. Nature of the test: Antimicrobial activity against ciprofloxacin-resistant Streptococcus pneumoniae T12 harboring gyrA mutant gene by agar dilution method.
Test [15] has as its system Streptococcus pneumoniae. Kind of test: Antimicrobial activity against ciprofloxacin-resistant Streptococcus pneumoniae T29 harboring gyrA mutant gene by agar dilution method.
In test [16] the test system is Streptococcus pneumoniae. Kind of test: Antimicrobial activity against ciprofloxacin-resistant Streptococcus pneumoniae T8 harboring gyrA mutant gene by agar dilution method.
Test [17] deals with Streptococcus pneumoniae. Kind of test: Antimicrobial activity against ciprofloxacin-resistant Streptococcus pneumoniae T26 harboring parC mutant gene by agar dilution method.
The subject of test [18] is Streptococcus pneumoniae. Kind of test: Antimicrobial activity against ciprofloxacin-resistant Streptococcus pneumoniae T16 harboring parC mutant gene by agar dilution method.
The test system of test [19] is Streptococcus pneumoniae. Nature of the test: Antimicrobial activity against ciprofloxacin-resistant Streptococcus pneumoniae T21 harboring parC mutant gene by agar dilution method.
Test [20] concerns Streptococcus pneumoniae. Nature of the test: Antimicrobial activity against ciprofloxacin-resistant Streptococcus pneumoniae T28 harboring gyrA mutant gene by agar dilution method.
Test [21] has as its system Streptococcus pneumoniae. Kind of test: Antimicrobial activity against ciprofloxacin-resistant Streptococcus pneumoniae T19 harboring gyrA mutant gene by agar dilution method.
The subject of test [22] is Streptococcus pneumoniae. Nature of the test: Antimicrobial activity against ciprofloxacin-resistant Streptococcus pneumoniae T25 harboring gyrA mutant gene by agar dilution method.
Test [23] concerns Streptococcus pneumoniae. Kind of test: Antimicrobial activity against ciprofloxacin-resistant Streptococcus pneumoniae T20 harboring gyrA mutant gene by agar dilution method.
In test [24] the test system is Streptococcus pneumoniae. Kind of test: Antimicrobial activity against ciprofloxacin-resistant Streptococcus pneumoniae T14 harboring gyrA mutant gene by agar dilution method.

As for `O=C(O)c1cn(C2CC2)c2cc(N3CCNCC3)c(F)cc2c1=O` [CIPROFLOXACIN], the minimal inhibitory concentration (MIC) in test [1] came out at 32 µg/mL (≈ 96.6 µM); in test [2], 32 µg/mL (≈ 96.6 µM); in test [3] it was 2 µg/mL (≈ 6.04 µM); in test [4], 32 µg/mL (≈ 96.6 µM); in test [5] it was 32 µg/mL (≈ 96.6 µM); in test [6], 32 µg/mL (≈ 96.6 µM). For the same molecule, the MIC in test [7] was 2 µg/mL (≈ 6.04 µM); in test [8], 4 µg/mL (≈ 12.1 µM); in [9] it was 32 µg/mL (≈ 96.6 µM); in test [10] it was 16 µg/mL (≈ 48.3 µM); in [11], 32 µg/mL (≈ 96.6 µM); in [12], 64 µg/mL (≈ 193 µM). The MIC in [13] is 16 µg/mL (≈ 48.3 µM); in [14], 32 µg/mL (≈ 96.6 µM); in [15] it was 32 µg/mL (≈ 96.6 µM); in [16], 32 µg/mL (≈ 96.6 µM); in test [17] it was 4 µg/mL (≈ 12.1 µM); in test [18], 2 µg/mL (≈ 6.04 µM). Besides, the MIC came to 2 µg/mL (≈ 6.04 µM) in test [19]; 32 µg/mL (≈ 96.6 µM) in test [20]; 32 µg/mL (≈ 96.6 µM) in test [21]; 16 µg/mL (≈ 48.3 µM) in [22]; 32 µg/mL (≈ 96.6 µM) in test [23]; 32 µg/mL (≈ 96.6 µM) in test [24].
